Assay results published in patent publication US20150291625A1 (PFIZER INC., priority 2012, published 2015).
pEC50: −log10 of the molar value. “And” between values parts separate entries of the source, which are not always exact repeats. Equal entries are not always repeated. Structures can show the parent of a compound that is named as a salt. Where two headings read alike, the source gives them in different places.

Columns and labels:
[1] = biological target: T1, D1 (Homo sapiens, UniProt P21728); assay: Human D1 receptor binding assay ([3H]-SCH23390 competition)
[2] = biological target: T1, D1; assay: D1 cAMP HTRF assay (HEK293T/hD1#1 stable cell line); assay type: cell-based; parameters: expressed in transfected cells
Description: This assay was used to determine the ability of a test compound to agonize (including partially agonize) D1. A Mab anti-cAMP labeled Cryptate visualizes the tracer. […] The signal, therefore, is inversely proportional to the concentration of cAMP in the sample.
The cAMP Dynamic kit was obtained from Cisbio International (Cisbio 62AM4PEJ). Multidrop Combi (Thermo Scientific) was used for assay additions. Envision (PerkinElmer) reader was used to read HTRF.
A HEK293T/hD1#1 stable cell line was constructed internally (Pfizer Ann Arbor). […] One mL aliquots of the cells were made in Cryo-vials and frozen at −80° C. for future use in the D1 HTRF assay.
Frozen cells were quickly thawed, re-suspended in 50 mL warm media and allowed to sit for 5 min prior to centrifugation (1000 rpm) at room temperature. Media was removed and cell pellet was re-suspended in PBS/0.5 μM IBMX generating 2e5 cells/mL. […] Cells and compounds were incubated at room temperature for 30 min. Working solutions of cAMP-D2 and anti-cAMP-cryptate were prepared according to Cisbio instructions. Using Multidrop, 5 μL cAMP-D2 working solution was added to the assay plate containing the test compound and cells. Using Multidrop, 5 μL anti-cAMP-cryptate working solutions was added to assay plate containing test compound, cells and cAMP-D2. Assay plate was incubated for 1 hour at room temperature. Assay plate was read on Envision plate reader using Cisbio recommended settings. A cAMP standard curve was generated using cAMP stock solution provided in the Cisbio kit.
Data analysis was done using computer software. Percent effects were calculated from the compound controls. Ratio EC50 was determined using the raw ratio data from the Envision reader. The cAMP standard curve was used in an analysis program to determine cAMP concentrations from raw ratio data. cAMP EC50 was determined using the calculated cAMP data.

[3] = Human D1 Receptor Binding, Ki (nM), Geometric mean of 2-4 determinations, a: >=5 determinations, d: single determination

T1 sequence (P21728 whole entry): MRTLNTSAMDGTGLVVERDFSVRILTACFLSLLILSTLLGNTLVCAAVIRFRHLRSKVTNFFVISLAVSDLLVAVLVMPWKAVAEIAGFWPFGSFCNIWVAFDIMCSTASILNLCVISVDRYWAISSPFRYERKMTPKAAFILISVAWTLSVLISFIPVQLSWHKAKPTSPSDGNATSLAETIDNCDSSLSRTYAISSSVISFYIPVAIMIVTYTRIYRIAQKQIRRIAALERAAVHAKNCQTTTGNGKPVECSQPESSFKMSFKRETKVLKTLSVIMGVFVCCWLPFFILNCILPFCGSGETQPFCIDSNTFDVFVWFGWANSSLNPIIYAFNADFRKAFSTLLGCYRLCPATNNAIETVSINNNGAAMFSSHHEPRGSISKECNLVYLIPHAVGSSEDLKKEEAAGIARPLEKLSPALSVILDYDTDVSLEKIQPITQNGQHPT

Structure (SMILES) | Ki [1, 3] | pEC50 [2] | Ki ([1]; read-out: Human D1 Receptor Binding, Ki (nM), Geometric mean of 2-4 determinations, a: >=5 determinations, d: single determination)
Cc1cc(Oc2nccc3occc23)ccc1-c1c(C)nc(O)c2nccn12 [Example 19, 5-[4-(Furo[3,2-c]pyridin-4-yloxy)-2-methylphenyl]-6-methylimidazo[1,2-a]pyrazin-8-ol] | 24.7 nM | 6.61 and 6.37 | –
Cc1ncnc(C)c1-c1ccc(Oc2nccc3occc23)cc1CO [Example 20, [2-(4,6-Dimethylpyrimidin-5-yl)-5-(furo[3,2-c]pyridin-4-yloxy)phenyl]methanol] | 138 nM | 6.21 | –
Cc1ncnc(C)c1-c1ccc(Oc2nccc3occc23)cc1CF [Example 21, 4-[4-(4,6-Dimethylpyrimidin-5-yl)-3-(fluoromethyl)phenoxy]furo[3,2-c]pyridine] | 36.2 nM | 7.07 | –
Cc1cc(Oc2nccc3occ(C)c23)ccc1-c1c(C)ncnc1C [Example 22, 4-[4-(4,6-Dimethylpyrimidin-5-yl)-3-methylphenoxy]-3-methylfuro[3,2-c]pyridine] | 162 nM | 6.11 and 5.87 | –
Cc1ncnc(C)c1-c1ccc(Oc2nccc3occc23)c2[nH]ccc12 [Example 23, 4-{[4-(4,6-Dimethylpyrimidin-5-yl)-1H-indol-7-yl]oxy}furo[3,2-c]pyridine] | 30.6 nM | 6.07 | –
CCOc1ncnc(C)c1-c1ccc(Oc2nccc3occc23)cc1C [Example 24, 4-[4-(4-Ethoxy-6-methylpyrimidin-5-yl)-3-methylphenoxy]furo[3,2-c]pyridine] | 33 nM | 5.69 and 5.59 | –
Cc1n[nH]c(=O)c(C)c1-c1ccc(Oc2nccc3occc23)cc1 [Example 28, 5-[4-(Furo[3,2-c]pyridin-4-yloxy)phenyl]-4,6-dimethylpyridazin-3(2H)-one] | 19.3 nM | 6.96 | –
Cc1cnccc1-c1c(C)cc(Oc2nccc3occc23)cc1C [Example 29, 4-[3,5-Dimethyl-4-(3-methylpyridin-4-yl)phenoxy]furo[3,2-c]pyridine] | 329 nM | 5.55 | –
c1ccc2c(-c3cccc4nccn34)ccc(Oc3nccc4occc34)c2c1 [Example 30, 4-{[4-(Imidazo[1,2-a]pyridin-5-yl)naphthalen-1-yl]oxy}furo[3,2-c]pyridine, trifluoroacetate salt] | 220 nM | 5.61 | –
Cc1nc2cnccc2n1-c1ccc(Oc2nccc3occc23)cc1 [Example 31, 1-[4-(furo[3,2-c]pyridin-4-yloxy)phenyl]-2-methyl-1H-imidazo[4,5-c]pyridine] | 316 nM | 5.99 and 5.92 | –
Cc1cnn(C2CC2)c1-c1ccc(Oc2nccc3occc23)cc1 [Example 32, 4-[4-(1-cyclopropyl-4-methyl-1H-pyrazol-5-yl)phenoxy]furo[3,2-c]pyridine, trifluoroacetate salt] | 281 nM | 5.65 | –

Next, values leading:

Ki [1, 3] | pEC50 [2] | Ki ([1]; read-out: Human D1 Receptor Binding, Ki (nM), Geometric mean of 2-4 determinations, a: >=5 determinations, d: single determination) | Structure (SMILES)
111 nM | 5.64 | – | COc1ccc2cnccc2c1-c1ccc(Oc2nccc3occc23)cc1 [Example 33, 5-[4-(furo[3,2-c]pyridin-4-yloxy)phenyl]-6-methoxyisoquinoline]
20 nM | 6.74 | – | COc1cc(Oc2nccc3occc23)ccc1-c1cccc2nccn12 [Example 34, 4-[4-(imidazo[1,2-a]pyridin-5-yl)-3-methoxyphenoxy]furo[3,2-c]pyridine]
– | 7.20 | 6.86 nM | Cc1cc(Oc2nccc3occc23)ccc1-c1c(C)ccc2nccn12 [Example 35, 4-[3-methyl-4-(6-methylimidazo[1,2-a]pyridin-5-yl)phenoxy]furo[3,2-c]pyridine]
120 nM | 6.42 and 6.39 | – | Cc1cc(Oc2nccc3occc23)ccc1-c1cncc2nccn12 [Example 36, 5-[4-(furo[3,2-c]pyridin-4-yloxy)-2-methylphenyl]imidazo[1,2-a]pyrazine]
3.54 nM | 7.33 | – | COc1cc(Oc2nccc3occc23)ccc1-c1c(C)ccc2nccn12 [Example 37, 4-[3-methoxy-4-(6-methylimidazo[1,2-a]pyridin-5-yl)phenoxy]furo[3,2-c]pyridine]
36 nM | 6.70 | – | CNc1cc(Oc2nccc3occc23)ccc1-c1cccc2nccn12 [Example 38, 5-(furo[3,2-c]pyridin-4-yloxy)-2-(imidazo[1,2-a]pyridin-5-yl)-N-methylaniline]
91 nM | 6.38 | – | Cc1nc2cnccc2n1-c1ccc(Oc2nccc3occc23)cc1Cl [Example 39, 1-[2-chloro-4-(furo[3,2-c]pyridin-4-yloxy)phenyl]-2-methyl-1H-imidazo[4,5-c]pyridine]
107 nM | 5.90 | – | c1cc(-c2ccc(Oc3nccc4occc34)cc2OCc2cscn2)n2ccnc2c1 [Example 40, 4-[4-(imidazo[1,2-a]pyridin-5-yl)-3-(1,3-thiazol-4-ylmethoxy)phenoxy]furo[3,2-c]pyridine, trifluoroacetate salt]
72.1 nM | 6.29 | – | CCC(=O)COc1cc(Oc2nccc3occc23)ccc1-c1cccc2nccn12 [Example 41, 1-[5-(furo[3,2-c]pyridin-4-yloxy)-2-(imidazo[1,2-a]pyridin-5-yl)phenoxy]butan-2-one, trifluoroacetate salt]
118 nM | 6.39 | – | OCCOc1cc(Oc2nccc3occc23)ccc1-c1cccc2nccn12 [Example 42, 2-[5-(furo[3,2-c]pyridin-4-yloxy)-2-(imidazo[1,2-a]pyridin-5-yl)phenoxy]ethanol, trifluoroacetate salt]
211 nM | 6.22 | – | O=C(COc1cc(Oc2nccc3occc23)ccc1-c1cccc2nccn12)NC1CC1 [Example 43, N-cyclopropyl-2-[5-(furo[3,2-c]pyridin-4-yloxy)-2-(imidazo[1,2-a]pyridin-5-yl)phenoxy]acetamide, trifluoroacetate salt]
129 nM | 6.19 | – | COC(=O)COc1cc(Oc2nccc3occc23)ccc1-c1cccc2nccn12 [Example 44, methyl [5-(furo[3,2-c]pyridin-4-yloxy)-2-(imidazo[1,2-a]pyridin-5-yl)phenoxy]acetate, trifluoroacetate salt]
182 nM | 5.94 | – | Cc1cc(Oc2nccc3occc23)ccc1-c1c(C)cnc2ncnn12 [Example 45, 7-[4-(furo[3,2-c]pyridin-4-yloxy)-2-methylphenyl]-6-methyl[1,2,4]triazolo[1,5-a]pyrimidine]
316 nM | 5.67 | – | O=C(NC1CCC1)c1cc(Oc2nccc3occc23)ccc1-c1cccc2nccn12 [Example 46, N-cyclobutyl-5-(furo[3,2-c]pyridin-4-yloxy)-2-(imidazo[1,2-a]pyridin-5-yl)benzamide, trifluoroacetate salt]
302 nM | 6.03 | – | CCOCC(=O)Nc1cc(Oc2nccc3occc23)ccc1-c1cccc2nccn12 [Example 47, 2-ethoxy-N-[5-(furo[3,2-c]pyridin-4-yloxy)-2-(imidazo[1,2-a]pyridin-5-yl)phenyl]acetamide]
68.8 nM | 5.68 | – | Cn1cncc1CNc1cc(Oc2nccc3occc23)ccc1-c1cccc2nccn12 [Example 48, 5-(furo[3,2-c]pyridin-4-yloxy)-2-(imidazo[1,2-a]pyridin-5-yl)-N-[(1-methyl-1H-imidazol-5-yl)methyl]aniline, trifluoroacetate salt]
